The values below come from US5541187A, “6-heterocycyclyl pyrazolo[3,4-d]pyrimidin-4-ones and compositions and method of use thereof” (Sterling Winthrop Inc., priority 1993, dated 1996).

This experiment relates to cGMP-PDE I. The experiment is described as follows: cGMP-PDE I inhibitory activity (cyclic nucleotide hydrolysis, isolated PDE isozyme). In kind it is biochemical, various animal species and man. The settings on record: for IC50: values marked * are from two separate experimental runs. The procedure: Multiple isozymic forms of cyclic nucleotide phosphodiesterase (PDE) have been identified in mammalian cells. […] Elevation of intracellular cGMP in vascular smooth muscle triggers a cascade of events that leads to a reduction in muscle tone while elevations in renal tubule cell cGMP stimulates natriuresis and diuresis. Vascular smooth muscle and renal cells contain a phosphodiesterase isozyme that has a low Km (1 μM) for the hydrolysis of cGMP. This isozyme has been referred to as the cGMP-PDE or cGMP-PDE I since it elutes from an anion-exchange sepharose resin in the first peak of PDE activity at a sodium acetate concentration between 150-200 mM. Thus inhibition of the cGMP-PDE isozyme is a viable subcellular mechanism by which increases in cGMP can produce a reduction in total peripheral resistance and a stimulation of natriuresis and diuresis. The development of cGMP-PDE inhibitors represents an approach for the discovery of agents useful for treating heart failure and hypertension. For example, compounds having high inhibitory potency for the cGMP-PDE are expected to lower blood pressure and induce natriuresis and diuresis.
The cGMP-PDE and other PDE isozymes were isolated from cardiovascular tissues (heart and aorta) of various animal species and man by anion-exchange and affinity chromatography as described by Silver et al., Sec. Messeng. Phos. 13:13-25, 1991; PDE activity, in the presence and absence of test compounds was determined essentially as described by Thompson et al., Adv. Cyclic Nucleotide Res. 10:69-92. To determine the potency and selectivity of compounds as PDE inhibitors, compounds are screened for their effect on cyclic nucleotide hydrolysis at 10 μM. If ≥50% inhibition of PDE activity is observed, an IC50 value (concentration of compound causing 50% reduction in PDE activity) and corresponding 95% confidence intervals are generated. The IC50 values are calculated from concentration-response curves as described by Tallarida and Murray, Manual of Pharmacologic Calculations with Computer Programs, Procedure 8, Graded Dose-response, pp. 14-19, Springer-Verlag, N.Y., 1981.

“And” between values parts separate entries of the source, which are not always exact repeats. Equal entries are not always repeated.

On to `Cc1[nH]n(C2CCCC2C)c2nc(-c3ccncc3)nc(=O)c1-2` (stereo not shown) [Example 1e, 1-(2-Methylcyclopentyl)-3-methyl-6-(4-pyridyl)pyrazolo [3,4-d]pyrimidin-4-one], for which the “Percent Inhibition cGMP-PDE I” value (0.1 μM) is given as 23% and the “Percent Inhibition cGMP-PDE I” value (1 μM) is reported as 59%.
Turning to `CCc1[nH]n(C2CCCC2)c2nc(-c3cccc(C)n3)nc(=O)c1-2` [Example 2f, 1-cyclopentyl-3-ethyl-6-(6-methyl-2-pyridyl) -pyrazolo-[3,4-d]pyrimidin-4-one], the “Percent Inhibition cGMP-PDE I” value is, setting by setting: (1 μM) 7%; (10 μM) 53%.
One may read the IC50 as the midpoint of a concentration-inhibition curve. A high value points to a need for much substance. In the case of `Cc1nn(C2CCCCC2)c2nc(-c3ccncc3)[nH]c(=O)c12` [Example 3e, 1-Cyclohexyl-3-methyl-6-(4-pyridyl)-pyrazolo[3,4-d]pyimidin-4-one], the IC50 is 460 nM and 560 nM.
Turning to `CC(C)(C)n1[nH]c(CC2CCCCC2)c2c(=O)nc(-c3ccncc3)nc1-2` [Example 5e, 1-tert-Butyl-3-(cyclohexylmethyl)-6-(4-pyridyl)-pyrazolo[3,4-d]pyrimidin-4-one], the half-maximal inhibitory concentration (IC50) amounted to 260 nM.
As for `CC(C)(C)n1[nH]c(Nc2ccccc2)c2c(=O)nc(-c3ccncc3)nc1-2` [Example 6e, 1-tert-Butyl-3-phenylamino-6-(4-pyridyl)-pyrazolo[3,4-d]-pyrimidin-4-one], it took 620 nM to reach half-maximal inhibition (IC50).
Regarding `CCc1[nH]n(C2CCCC2)c2nc(-c3ccnc4ccccc34)nc(=O)c1-2` [Example 7c, 1-Cyclopentyl-3-ethyl-6-(4-quinolinyl)-pyrazolo[3,4-d]pyrimidin-4-one], the IC50 was 190 nM.
With `CCc1[nH]n(C2CCCC2)c2nc(C3CCNC4CCCCC43)nc(=O)c1-2` (stereo not shown) [Example 8, 1-Cyclopentyl-3-ethyl-6-(perhydro-4-quinolinyl)-pyrazolo[3,4-d]pyrimidin-4-one], the “Percent Inhibition cGMP-PDE I” value runs as follows: (1 μM) 31%; (10 μM) 67%.
On to `CCc1[nH]n(C2CCCC2)c2nc(C3CCNc4ccccc43)nc(=O)c1-2` (stereo not shown) [Example 9, 1-Cyclopentyl-3-ethyl-6-(1,2,3,4-tetrahydro-4-quinolinyl)-pyrazolo[3,4-d]pyrimidin-4-one], for which half-maximal inhibition (IC50) was put at 280 nM.
In the case of `CCc1nn(C2CCCC2)c2nc(C3CCN(C)c4ccccc43)[nH]c(=O)c12` (stereo not shown) [Example 10b, 1-cyclopentyl-3-ethyl-6-(1,2,3,4-tetrahydro-4-N-methyl-quinolinyl)-pyrazolo-[3,4-d]pyrimidin-4-one], the “Percent Inhibition cGMP-PDE I” value (0.1 μM) is reported as 24% and the “Percent Inhibition cGMP-PDE I” value (1 μM) is on record as 62%.
The compound `Cc1[nH]n(C2CCCC2)c2nc(-c3cccc4cccnc34)nc(=O)c1-2` [Example 12c, 1-Cyclopentyl-3-methyl-6-(8-quinolinyl)-pyrazolo-[3,4-d]pyrimidin-4-one] displayed an IC50 of 690 nM.
Turning to `O=c1nc(-c2ccncc2)nc2n(C3CCCC3)[nH]c(Cc3ccccc3)c1-2` [Example 15e, 1-Cyclopentyl-3-phenylmethyl-6-(4-pyridyl)-pyrazolo[3,4-d]pyrimidin-4-one], the “Percent Inhibition cGMP-PDE I” value reads like this: (1 μM) 38%; (10 μM) 43%.
On to `CCc1[nH]n(C2CCCC2)c2nc(-c3ccc4nccn4c3)nc(=O)c1-2` [Example 16c, 1-Cyclopentyl-3-ethyl-6-(6-imidazo[1,2-a]pyridinyl)pyrazolo[3,4-d]pyrimidin-4-one], for which the IC50 was 780 nM. Also, under “0.1 μM”, the “Percent Inhibition cGMP-PDE I” value worked out at 35%. Besides, the “Percent Inhibition cGMP-PDE I” value (1 μM) was found to be 69%.
`Cc1nn(C2CCCC2O)c2nc(-c3ccncc3)[nH]c(=O)c12` (stereo not shown) [Example 17e]: the IC50 is 2300 nM.
For `Cc1nn(C2CCS(=O)(=O)C2)c2nc(-c3ccncc3)[nH]c(=O)c12` (stereo not shown) [Example 18c, 1-(3-Tetrahydrothienyl-1,1-dioxide)-3-methyl-6-(4-pyridyl)pyrazolo[3,4-d]pyrimidin-4-one methanesulfonate], the “Percent Inhibition cGMP-PDE I” value by setting is: (1 μM) 0%; (10 μM) 45%.
As to `CSc1[nH]n(C2CCCC2)c2nc(-c3ccncc3)nc(=O)c1-2` [Example 19c, 1-Cyclopentyl-3-methylthio-6-(4-pyridyl)pyrazolo[3,4-d]pyrimidin-4-one], the “Percent Inhibition cGMP-PDE I” value runs as follows: (1 μM) 32%; (10 μM) 74%.
`CN(C)c1[nH]n(C2CCCC2)c2nc(-c3ccncc3)nc(=O)c1-2` [Example 20c, 1-Cyclopentyl-3-dimethylamino-6-(4-pyridyl) pyrazolo[3,4-d]pyrimidin-4-one]: the “Percent Inhibition cGMP-PDE I” value by setting is: (1 μM) 36%; (10 μM) 70%.
Turning to `O=c1[nH]c(-c2ccncc2)nc2c1cnn2C1CCCC1` [Example 71], the IC50 came out at 3700 nM.
`O=c1[nH]c(-c2ccncc2)nc2c1c(Cl)nn2C1CCCC1` [Example 72] returned an IC50 of 1150 nM.
Same read-out and setting: for `O=c1[nH]c(-c2ccncc2)nc2c1c(Br)nn2C1CCCC1` [Example 73] the value was 1800 nM.
Turning to `O=c1[nH]c(-c2ccncc2)nc2c1c([N+](=O)[O-])nn2C1CCCC1` [Example 74], the “Percent Inhibition cGMP-PDE I” value by setting is: (1 μM) 0%; (10 μM) 32%.
The matching figures for `Cc1n[nH]c2nc(-c3ccncc3)[nH]c(=O)c12` [Example 76]: 0% and 24%.
Regarding `Cc1nn(Cc2ccccc2)c2nc(-c3ccncc3)[nH]c(=O)c12` [Example 77], the “Percent Inhibition cGMP-PDE I” value reads like this: (1 μM) 13%; (10 μM) 80%.
Consider `Cc1nn(CCCCCCCCC(=O)O)c2nc(-c3ccncc3)[nH]c(=O)c12` [Example 78], for which the “Percent Inhibition cGMP-PDE I” value (1 μM) is 54%.
The compound `Cc1nn(CCCCCCC(=O)O)c2nc(-c3ccncc3)[nH]c(=O)c12` [Example 79] gave an IC50 of 4700 nM.
`Cc1nn(CCCCCC(=O)O)c2nc(-c3ccncc3)[nH]c(=O)c12` [Example 80] displayed an IC50 of 2700 nM.
On the same count and under the same terms, as for `Cc1nn(Cc2cccc(Cl)c2)c2nc(-c3ccncc3)[nH]c(=O)c12` [Example 81], the figure is 200 nM; as for `Cc1nn(Cc2ccccc2Cl)c2nc(-c3ccncc3)[nH]c(=O)c12` [Example 82], 550 nM.
With `Cc1nn(CCCCCCCC(=O)O)c2nc(-c3ccncc3)[nH]c(=O)c12` [Example 84], the IC50 was 610 nM.
`Cc1nn(Cc2ccc(C#N)cc2)c2nc(-c3ccncc3)[nH]c(=O)c12` [Example 85]: for the setting “10 μM”, the “Percent Inhibition cGMP-PDE I” value turned out to be 42%.
`Cc1nn(Cc2cccc(C#N)c2)c2nc(-c3ccncc3)[nH]c(=O)c12` [Example 86]: under “10 μM”, the “Percent Inhibition cGMP-PDE I” value was determined as 41%.
In the case of `Cc1ccccc1Cn1nc(C)c2c(=O)[nH]c(-c3ccncc3)nc21` [Example 87], the half-inhibitory concentration (IC50) is 2700 nM and 3600 nM.
Take `CCCCCCCCn1nc(C)c2c(=O)[nH]c(-c3ccncc3)nc21` [Example 88]: the “Percent Inhibition cGMP-PDE I” value (1 μM) is 32%.
In the case of `Cc1nn(CC2CCCC2)c2nc(-c3ccncc3)[nH]c(=O)c12` [Example 89], the “Percent Inhibition cGMP-PDE I” value is reported as 17% (1 μM) and 77% (10 μM).
With `Cc1nn(C2CC3CCC2C3)c2nc(-c3ccncc3)[nH]c(=O)c12` (stereo not shown) [Example 91], the midpoint of inhibition, the IC50, lay at 850 nM.
Turning to `CC(C)(C)n1ncc2c(=O)[nH]c(-c3ccncc3)nc21` [Example 92], the IC50 came to 680 nM.
For `CCc1nn(C(C)(C)C)c2nc(-c3ccncc3)[nH]c(=O)c12` [Example 94], the half-maximal inhibitory concentration (IC50) was 480 nM.
Turning to `CC(C)(C)c1nn(C2CCCC2)c2nc(-c3ccncc3)[nH]c(=O)c12` [Example 95], the “Percent Inhibition cGMP-PDE I” value by setting is: (1 μM) 9%; (10 μM) 32%.
The compound `O=c1[nH]c(-c2ccncc2)nc2c1c(C(F)(F)F)nn2C1CCCC1` [Example 96] registered a half-inhibitory concentration (IC50) of 670 nM.
Consider `CCN(CC)CCCn1nc(C)c2c(=O)[nH]c(-c3ccncc3)nc21` [Example 99, 1-(3-Diethylaminopropyl)-3-methyl-6-(4-pyridyl)pyrazolo[3,4-d]pyrimidin-4-one. 1/2 hydrate], for which the “Percent Inhibition cGMP-PDE I” value was determined as 0% (1 μM) and 12% (10 μM).
In the case of `N#Cc1[nH]n(C2CCCC2)c2nc(-c3ccncc3)nc(=O)c1-2` [Example 100, 1-Cyclopentyl-3-cyano-6-(4-pyridyl)-pyrazolo-[3,4-d]pyrimidin-4-one], the “Percent Inhibition cGMP-PDE I” value is, setting by setting: (1 μM) 9%; (10 μM) 35%.
`Cc1nn(C2CCOC2)c2nc(-c3ccncc3)[nH]c(=O)c12` (stereo not shown) [Example 101, 1-(3-Tetrahydrofuranyl)-3-methyl-6-(4-pyridyl)-pyrazolo-[3,4-d]pyrimidin-4-one-1/4 hydrate] returned an IC50 of 1780 nM.
Turning to `Cc1[nH]n(C2CCC2)c2nc(-c3ccncc3)nc(=O)c1-2` [Example 102, 1-Cyclobutyl-3-methyl-6-(4-pyridyl)-pyrazolo-[3,4-d]pyrimidin-4-one], the IC50 turned out to be 1900 nM.
As to `Cc1[nH]n(C)c2nc(-c3ccncc3)nc(=O)c1-2` [Example 103, 1,3-Dimethyl-6-(4-pyridyl)-pyrazolo-[3,4-d]pyrimidin-4-one], the “Percent Inhibition cGMP-PDE I” value is given as 0% (1 μM) and 19% (10 μM).
